The subject of test [1] is HEK293. The experiment in a line: Cytotoxicity against Homo sapiens (human) HEK293 cells assessed as inhibition of cell viability after 72 hr by MTT assay. Type of test: cell-based. Particulars: HEK293, 72 h.
Test [2] relates to HepG2. The experiment in a line: Antitumor activity against Homo sapiens (human) HepG2 cells assessed as inhibition of cell viability after 72 hr by MTT assay. Particulars: HepG2, 72 h. Type of test: functional, cell-based. (In general: Formazan colour is commonly taken as a measure of viable cells.)
Test [3] in a line: Antitumor activity against Homo sapiens (human) LN229 cells assessed as inhibition of cell viability after 72 hr by MTT assay. Type of test: functional, cell-based. Particulars: LN-229, 72 h.
Test [4] concerns DU-145. Put plainly: Antitumor activity against Homo sapiens (human) DU145 cells assessed as inhibition of cell viability after 72 hr by MTT assay. Type of test: functional, cell-based. Particulars: DU-145, 72 h.
For test [5], the system named is A549. The experiment in a line: Antitumor activity against Homo sapiens (human) A549 cells assessed as inhibition of cell viability after 72 hr by MTT assay. Type of test: functional, cell-based. Particulars: A549, 72 h.
Test [6] deals with HCT-116. The experiment in a line: Antitumor activity against Homo sapiens (human) HCT116 cells assessed as inhibition of cell viability after 72 hr by MTT assay. Type of test: functional, cell-based. Particulars: HCT-116, 72 h.
Test [7] deals with HCT-116. The experiment in a line: Decrease in VEGF protein expression in Homo sapiens (human) HCT116 cells at 2.5 to 10 uM after 48 hr by westerrn blot analysis. It is filed as functional, cell-based.

Each structure is given as a SMILES string. Calls of active or inactive are those of the source. The calls are words filed in the database; no cut-off is given here.

On to `COc1cc(OC)c2c(N3CCOCC3)cc(-c3ccccc3)nc2c1`, for which the IC50 in test [1] is > 100 µM; in test [2], > 100 µM; in test [3], > 100 µM; in test [4], > 100 µM; in test [5], > 100 µM; in test [6], 28.1 µM.

With `COc1cc(OC)c2c(Nc3ccccc3)cc(-c3ccccc3)nc2c1`, the IC50 in test [1] was 13.2 µM; in test [2], 36.4 µM; in test [3], 5.9 µM; in test [4], 22.2 µM; in test [5] it was > 100 µM; in test [6], 4.28 µM.

Turning to `O=c1[nH]cc(F)c(=O)[nH]1` [FLUOROURACIL], the concentration for half-maximal inhibition (IC50) in test [2] was 19.2 µM; in test [4] it was 2.95 µM; in test [5] it was > 100 µM; in test [6], 1.93 µM.

With `CCCCNc1cc(-c2ccccc2)nc2cc(OC)cc(OC)c12`, the IC50 in test [1] worked out at 3.23 µM; in test [2], 4.46 µM; in test [3], 3.92 µM; in test [4] it was 4.63 µM; in test [5] it was 19.6 µM; in test [6] it was 3.05 µM.

In the case of `COc1cc(OC)c2c(-n3ccnc3)cc(-c3ccccc3)nc2c1`, the IC50 in test [2] is 58.6 µM; in test [3], 55.3 µM; in test [4], > 100 µM; in test [5], > 100 µM; in test [6], 42.4 µM.

In the case of `COc1cc(OC)c2c(NC3CCCCC3)cc(-c3ccccc3)nc2c1`, the IC50 in test [2] stood at 3.16 µM; in test [3] it was 6.08 µM; in test [4], 5.47 µM; in test [5], 6.59 µM; in test [6], 3.82 µM.

For the compound `COc1cc(OC)c2c(NCc3ccccc3)cc(-c3ccccc3)nc2c1`, the IC50 in test [2] is 10.9 µM; in test [3], 7.15 µM; in test [4], 10.1 µM; in test [5] it was 12.8 µM; in test [6], 12 µM.

For `COc1cc(OC)c2c(N3CCN(C)CC3)cc(-c3ccccc3)nc2c1`, the IC50 in test [1] was 3.66 µM; in test [2], 22.6 µM; in test [3], 1.75 µM; in test [4], 16.4 µM; in test [5], > 100 µM; in test [6], 7.43 µM.

Take `CCCNc1cc(-c2ccccc2)nc2cc(OC)cc(OC)c12`: the inhibition entry in test [7] is “Active”. Besides, the IC50 turned out to be 2 µM in test [1]; 5.21 µM in test [2]; 1.82 µM in test [3]; 9.77 µM in test [4]; 13.1 µM in test [5]; 0.97 µM in test [6].

Regarding `COc1cc(OC)c2c(N3CCCCC3)cc(-c3ccccc3)nc2c1`, the IC50 was 68.2 µM in test [1]; > 100 µM in test [2]; 66 µM in test [3]; > 100 µM in test [4]; > 100 µM in test [5]; 32 µM in test [6].

A word on the IC50: it is the midpoint of a concentration-inhibition curve.

The record behind these values is ChEMBL document CHEMBL3046194, “Synthesis and antitumor activity of novel 4-aminoquinoline derivatives” (Med Chem Res, 2013).
